Results reported in patent US10807992B2, “Single enantiomer antiparasitic compounds” (priority 2017, dated 2020).
Read-outs that look alike come from different tables or passages of the source.

How the values were obtained:
[1] = Plasma PK from oral tick and flea efficacy studies of the C1 racemate; format: in vivo, Mongrel dogs; conditions: for Cmax / AUC(0-t) / AUC(0-inf) / half-life / CL/F / Tmax: mongrel, dog, po; for Cmax / AUC(0-t) / AUC(0-inf) / half-life / CL/F / Tmax / tlast: plasma; for AUC(0-t): read-out: NCA AUC0-last
Source text: However, the S- enantiomer plasma PK curves and calculated PK parameters conducted in beagle dogs differed from oral efficacy studies conducted on the racemate dosed in mongrels.
Pharmacokinetic results from the compound C1 (S) enantiomer PK study differed from racemic efficacy studies. Average plasma pharmacokinetic parameters from the compound C1 (S) enantiomer PK study described in this document are compared to those from oral efficacy studies of the racemate in Table 6.

Rhipicephalus sanguineus = test: In vitro contact activity against adult ticks (coated vial), R. sanguineus; conditions: for mortality at 0.006 µM: Trial 3, dose 0.006 μM; for mortality at 0.024 µM: Trial 3, dose 0.024 μM; for mortality at 0.098 µM: Trial 3, dose 0.098 μM; for mortality at 0.39 µM: Trial 3, dose 0.39 μM; for mortality at 1.56 µM: Trial 3, dose 1.56 μM; for mortality at 6.25 µM: Trial 3, dose 6.25 μM; for mortality at 25 µM: Trial 3, dose 25 μM; for mortality at 100 µM: Trial 3, dose 100 μM
Description: Rhipicephalus sanguineus, Dermacentor variabilis, Amblyomma americanum, (Ecto Services, Inc., Henderson, N.C.) and Ixodes scapularis (Oklahoma State University, Stillwater, Okla.) aged between 2-4 weeks post molt were held in an environmental chamber at 24° C., 80% humidity with 12-hour light/dark cycles.
For tick assays, vial caps were pre-drilled with a single hole in the center of each cap to allow air exchange. A filter paper (Whatman Grade 540 2.1 cm) was placed in the lid of each vial. An aliquot from each compound stock was added to an acetone/triton solution to achieve the desired top doses for the study. Serial dilutions were conducted from the top dose (i.e. 100 ppm) to achieve the desired titration range for EC50 and EC90 determination. For R. sanguineus, D. variabilis, and A. americanum, the final DMSO concentration in each test vial was 0.5%. For I. scapularis, compounds were solubilized directly in an acetone/triton solution due to I. scapularis' sensitivity to DMSO. A 459 μL aliquot of each compound formulation was transferred to a vial containing a Whatman Grade 540 2.1 cm filter paper. Vials were immediately placed on an unheated roller unit to allow for an even coating of the vial walls. After vials were coated, 41 μL of each compound formulation was added to the filter paper embedded in each vial cap. Each cap was allowed to dry. The vials were loosely capped and allowed to dry for a minimum of four hours in a chemical fume hood.
Compounds tested were: the C1 racemate, C1 (R) enantiomer, and the C1 (S) enantiomer. For Trial 3, the C1 (R) enantiomer and the C1 (S) enantiomer were further chiral purified to achieve >99% purity.
Ten adult ticks were added to each vial and held at 24° C., 80% humidity with 12-hour light/dark cycles. Adult ticks were assessed for percent mortality at various time points between 2 hours and 48 hours post infestation. Ticks were stimulated on a heated roller unit and evaluated. Ticks showing no movement, or very slow and uncoordinated movement were noted as dead.

[2] = test system: Ctenocephalides felis (flea), Ixodidae (tick), and Aedes aegypti (mosquito); test: Bio-profiling of C1 racemate and enantiomers, overall conclusions of contact and ingestion assays; conditions: adult ticks, contact assays
Source text: 1-[6-[5-(3,5-dichloro-4-fluoro-phenyl)-5-(trifluoromethyl)-4H-isothiazol-3-yl]spiro[1H-isobenzofuran-3,3′-azetidine]-1′-yl]-3,3,3-trifluoro-propan-1-one (referred to herein as C1 racemate) is an isothiazoline compound consisting of two isomers: (R)-1-[6-[5-(3,5-dichloro-4-fluoro-phenyl)-5-(trifluoromethyl)-4H-isothiazol-3-yl]spiro[1H-isobenzofuran-3,3′-azetidine]-1′-yl]-3,3,3-trifluoro-propan-1-one (referred herein as C1 (R) enantiomer) and (S)-1-[6-[5-(3,5-dichloro-4-fluoro-phenyl)-5-(trifluoromethyl)-4H-isothiazol-3-yl]spiro[1H-isobenzofuran-3,3′-azetidine]-1′-yl]-3,3,3-trifluoro-propan-1-one (referred to herein as C1 (S) enantiomer). The racemic compound and the two enantiomers were tested against adult stages of Ctenocephalides felis (flea) Ixodidae (tick), and Aedes aegypti (mosquito). The compounds were solubilized in DMSO or an acetone/triton solution and dose response curves were generated for the individual compounds.
For evaluation of contact activity, coated-substrate (flea) and coated-vial (tick and mosquito) assay procedures were used. For evaluation of flea ingestion activity, an artificial feeding assay procedure was used. Insecticidal activity was evaluated at various time-points for each assay. Dose response curves were generated in duplicate on three independent test occasions (Trial 1-Trial 3) and EC50 and EC90 values were calculated.
Therefore, mortality correction was not performed in the assays. Calculation of EC50 and EC90 values was performed using XLfit. Both EC50 and EC90 values were calculated using the average of the two replicates for each Trial.
The C1 (R) enantiomer, C1 (S) enantiomer, and the C1 racemate were successfully evaluated against flea, tick, and mosquito contact and ingestion in vitro screening assays.

[3] = 10 mg/kg, Flea Efficacy study, oral 10 mg/kg
[4] = 10 mg/kg, Tick Efficacy study, oral 10 mg/kg
[5] = 20 mg/kg, Flea Efficacy study, oral 20 mg/kg
[6] = 20 mg/kg, Tick Efficacy study, oral 20 mg/kg

## O=C(CC(F)(F)F)N1CC2(C1)OCc1cc(C3=NSC(c4cc(Cl)c(F)c(Cl)c4)(C(F)(F)F)C3)ccc12 (racemic) [C1 racemate, 1-[6-[5-(3,5-dichloro-4-fluoro-phenyl)-5-(trifluoromethyl)-4H-isothiazol-3-yl]spiro[1H-isobenzofuran-3,3′-azetidine]-1′-yl]-3,3,3-trifluoro-propan-1-one]
[1]; dogs, oral
  absorption and elimination in dogs: well-absorbed compound with an extended elimination half-life in dogs
[1]; 10 mg/kg, Mongrel, Flea Efficacy study, oral 10 mg/kg, read-out: Cmax
  Cmax: 3470 ng/mL
[1]; 10 mg/kg, Mongrel, Flea Efficacy study, oral 10 mg/kg
  AUC(0-t): 266 µg·h/mL
[1]; 10 mg/kg, Mongrel, Flea Efficacy study, oral 10 mg/kg, read-out: NCA AUC0-∞
  AUC(0-inf): 361 µg·h/mL
[1]; 10 mg/kg, Mongrel, Flea Efficacy study, oral 10 mg/kg, read-out: t1/2 (converted)
  half-life: 23.8 days
[1]; 10 mg/kg, Mongrel, Tick Efficacy study, oral 10 mg/kg, read-out: Cmax
  Cmax: 3780 ng/mL
[1]; 10 mg/kg, Mongrel, Tick Efficacy study, oral 10 mg/kg
  AUC(0-t): 344 µg·h/mL
[1]; 10 mg/kg, Mongrel, Tick Efficacy study, oral 10 mg/kg, read-out: NCA AUC0-∞
  AUC(0-inf): 395 µg·h/mL
[1]; 10 mg/kg, Mongrel, Tick Efficacy study, oral 10 mg/kg, read-out: t1/2 (converted)
  half-life: 16.4 days
[1]; 10 mg/kg, range over racemate efficacy studies, at 10 mg/kg, read-out: plasma area under the curve extrapolated to infinity (AUC0-∞)
  AUC(0-inf): 361 to 395 µg·h/mL
[1]; 10 mg/kg, range over racemate efficacy studies, dosed at 10 mg/kg, read-out: plasma Cmax
  Cmax: 3470 to 3780 ng/mL
[1]; [3]
  CL/F: 0.643 mL/min/kg
  Tmax: 0.0417 days
[1]; [4]
  CL/F: 0.502 mL/min/kg
  Tmax: 0.125 days
[1]; 20 mg/kg, Mongrel, Flea Efficacy study, oral 20 mg/kg, read-out: Cmax
  Cmax: 4740 ng/mL
[1]; 20 mg/kg, Mongrel, Flea Efficacy study, oral 20 mg/kg
  AUC(0-t): 463 µg·h/mL
[1]; 20 mg/kg, Mongrel, Flea Efficacy study, oral 20 mg/kg, read-out: NCA AUC0-∞
  AUC(0-inf): 525 µg·h/mL
[1]; 20 mg/kg, Mongrel, Flea Efficacy study, oral 20 mg/kg, read-out: t1/2 (converted)
  half-life: 14.9 days
[1]; 20 mg/kg, Mongrel, Tick Efficacy study, oral 20 mg/kg, read-out: Cmax
  Cmax: 6240 ng/mL
[1]; 20 mg/kg, Mongrel, Tick Efficacy study, oral 20 mg/kg
  AUC(0-t): 494 µg·h/mL
[1]; 20 mg/kg, Mongrel, Tick Efficacy study, oral 20 mg/kg, read-out: NCA AUC0-∞
  AUC(0-inf): 674 µg·h/mL
[1]; 20 mg/kg, Mongrel, Tick Efficacy study, oral 20 mg/kg, read-out: t1/2 (converted)
  half-life: 23.8 days
[1]; [5]
  CL/F: 0.737 mL/min/kg
  Tmax: 0.0417 days
[1]; [6]
  CL/F: 0.693 mL/min/kg
  Tmax: 0.0833 days
[1]; range over racemate efficacy studies, read-out: half-life
  half-life: 14.9 to 23.8 days
[1]; range over racemate efficacy studies
  CL/F: 0.5 to 0.733 mL/min/kg
[1]; Mongrel, Flea Efficacy study, oral 10 mg/kg
  tlast: 1032 h
[1]; Mongrel, Flea Efficacy study, oral 20 mg/kg
  tlast: 1032 h
[1]; Mongrel, Tick Efficacy study, oral 10 mg/kg
  tlast: 1056 h
[1]; Mongrel, Tick Efficacy study, oral 20 mg/kg
  tlast: 1056 h
Rhipicephalus sanguineus; 2 h, Rep1
  mortality at 0.006 µM: 0%
  mortality at 0.024 µM: 0%
  mortality at 0.098 µM: 0%
  mortality at 0.39 µM: 0%
  mortality at 1.56 µM: 0%
  mortality at 6.25 µM: 0%
  mortality at 25 µM: 30%
  mortality at 100 µM: 10%
Rhipicephalus sanguineus; 2 h, Rep2
  mortality at 0.006 µM: 0%
  mortality at 0.024 µM: 0%
  mortality at 0.098 µM: 0%
  mortality at 0.39 µM: 0%
  mortality at 1.56 µM: 0%
  mortality at 6.25 µM: 0%
  mortality at 25 µM: 10%
  mortality at 100 µM: 0%
Rhipicephalus sanguineus; 6 h, Rep1
  mortality at 0.006 µM: 0%
  mortality at 0.024 µM: 0%
  mortality at 0.098 µM: 0%
  mortality at 0.39 µM: 10%
  mortality at 1.56 µM: 0%
  mortality at 6.25 µM: 50%
  mortality at 25 µM: 90%
  mortality at 100 µM: 100%
Rhipicephalus sanguineus; 6 h, Rep2
  mortality at 0.006 µM: 0%
  mortality at 0.024 µM: 0%
  mortality at 0.098 µM: 0%
  mortality at 0.39 µM: 0%
  mortality at 1.56 µM: 0%
  mortality at 6.25 µM: 20%
  mortality at 25 µM: 100%
  mortality at 100 µM: 100%
Rhipicephalus sanguineus; 12 h, Rep1
  mortality at 0.006 µM: 0%
  mortality at 0.024 µM: 0%
  mortality at 0.098 µM: 0%
  mortality at 0.39 µM: 10%
  mortality at 1.56 µM: 90%
  mortality at 6.25 µM: 80%
  mortality at 25 µM: 90%
  mortality at 100 µM: 100%
Rhipicephalus sanguineus; 12 h, Rep2
  mortality at 0.006 µM: 0%
  mortality at 0.024 µM: 0%
  mortality at 0.098 µM: 0%
  mortality at 0.39 µM: 0%
  mortality at 1.56 µM: 50%
  mortality at 6.25 µM: 80%
  mortality at 25 µM: 100%
  mortality at 100 µM: 100%
[2]
  potency against ticks: excellent potency against ticks
